Read-outs that look alike come from different tables or passages of the source.
Legend:
[1] = Rodent pharmacokinetics: oral bioavailability and clearance in male mice; set-up: species or system mouse; details: in vivo
Protocol: Formulation: 10% DMSO, 90% Saline
Dosing: 10 mg/kg P.O. and 5 mg/kg I.V.
Animals in Group 1 were administered intravenously with Example B solution formulation in 20% Propylene Glycol, 50% of PEG 400 and 30% of (20% HPβCD in water) via tail vein at a dose of 3 mg/kg.
Animals in Group 2 were administered with oral solution formulation of Example B in 20% Propylene Glycol, 50% of PEG 400 and 30% of (20% HPβCD in water) at a dose of 10 mg/kg;
Dosing: 10 mg/kg P.O. and 3 mg/kg I.V.
Animals in Group 1 were administered intravenously with Example G solution formulation in 5% NMP, 5% solutol HS-15 in 90% HPβCD solution (20% HPβCD in RO water) at 3 mg/kg dose.
Animals in Group 2 were administered orally with 10 mg/kg solution formulation of Example G in 5% NMP, 5% solutol HS-15 in 90% HPβCD solution (20% HPβCD in RO water)

Recombinant human HDAC6 = target: T1, Recombinant human HDAC6 (Homo sapiens, UniProt Q9UBN7); assay: HDAC biochemical assay with acetylated AMC-labeled peptide substrate; details: read-out: IC50 HDAC 6
T1 construct: GST (N); made in house; host or cells: Sf9 insect cells (baculovirus)
T1 sequence (Q9UBN7 1-1215): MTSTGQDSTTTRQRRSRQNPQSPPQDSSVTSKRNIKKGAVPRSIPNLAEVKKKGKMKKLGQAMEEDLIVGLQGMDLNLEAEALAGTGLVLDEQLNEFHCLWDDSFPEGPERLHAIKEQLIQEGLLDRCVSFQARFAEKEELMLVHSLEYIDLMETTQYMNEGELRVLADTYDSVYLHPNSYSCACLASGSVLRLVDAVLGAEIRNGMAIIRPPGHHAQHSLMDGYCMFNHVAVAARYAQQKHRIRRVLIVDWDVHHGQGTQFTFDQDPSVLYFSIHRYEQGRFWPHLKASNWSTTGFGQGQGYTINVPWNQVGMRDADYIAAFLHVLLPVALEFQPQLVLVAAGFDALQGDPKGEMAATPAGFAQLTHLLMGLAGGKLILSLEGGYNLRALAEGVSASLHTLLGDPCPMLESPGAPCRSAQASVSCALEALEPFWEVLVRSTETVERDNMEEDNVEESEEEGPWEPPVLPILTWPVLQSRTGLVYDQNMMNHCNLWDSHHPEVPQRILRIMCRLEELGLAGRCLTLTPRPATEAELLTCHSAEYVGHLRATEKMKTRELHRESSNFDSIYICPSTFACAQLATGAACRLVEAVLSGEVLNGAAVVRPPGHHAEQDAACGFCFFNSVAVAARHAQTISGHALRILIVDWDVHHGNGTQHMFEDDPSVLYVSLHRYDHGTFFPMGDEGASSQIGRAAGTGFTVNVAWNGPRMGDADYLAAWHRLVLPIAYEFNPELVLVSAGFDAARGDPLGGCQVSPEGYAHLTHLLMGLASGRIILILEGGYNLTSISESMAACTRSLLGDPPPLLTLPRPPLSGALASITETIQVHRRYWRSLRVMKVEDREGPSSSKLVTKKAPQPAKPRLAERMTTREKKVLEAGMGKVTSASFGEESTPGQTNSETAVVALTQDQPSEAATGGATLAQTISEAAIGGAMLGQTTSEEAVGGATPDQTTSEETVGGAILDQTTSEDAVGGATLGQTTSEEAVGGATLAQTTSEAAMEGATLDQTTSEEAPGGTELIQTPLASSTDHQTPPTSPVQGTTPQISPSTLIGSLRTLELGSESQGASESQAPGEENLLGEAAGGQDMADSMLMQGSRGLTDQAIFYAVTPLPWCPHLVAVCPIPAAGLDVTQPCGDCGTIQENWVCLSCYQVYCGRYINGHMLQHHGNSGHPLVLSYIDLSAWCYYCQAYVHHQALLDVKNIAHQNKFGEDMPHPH
Protocol: (§1) Activity against all zinc-dependent HDACs 1 to 11 was assessed by using an acetylated AMC-labeled peptide substrate. The substrate RHKKAc was used for all class I and IIb HDACs; for HDAC8, the substrate used was RHKAcKAc. […] All assays were based on the AMC-labeled substrate and developer combination.
(§2) The protocol involved a two-step reaction: first, the substrate with the acetylated lysine side chain is incubated with a sample containing HDAC activity, to produce the deacetylated products, which are then digested in the second step by the addition of developer to produce the fluorescent signal proportional to the amount of deacetylated substrates.
Human HDAC5 (GenBank Accession No. NM_005474), full length with N-terminal GST tag, MW=150 kDa, expressed in baculovirus expression system. Recombinant human HDAC6 (GenBank Accession No. BC069243), full length, MW=180 kDa, was expressed by baculovirus in Sf9 insect cells using an N-terminal GST tag.
(§3) Before use, 1 mg/mL BSA and DMSO are added.
(§4) Incubate for 2 hours at 30° C.
(§5) Fluorescence background signal is then subtracted from compound data signal.
(§6) Stage 1: Deacetylation of substrate by incubation of HDAC enzymes with compounds
(§7) Stage 2: Development by addition of Developer to digest the deacetylated substrate, and generate the fluorescent color; Detection: 360/460 Ex/Em

Human HDAC1 = target: T2, Human HDAC1 (Homo sapiens, UniProt Q13547); assay: as above; details: read-out: IC50 HDAC 1
T2 construct: full length with C-terminal His-tag and C-terminal FLAG-tag; His-tag (C); FLAG-tag (C); made in house; host or cells: baculovirus expression system
T2 sequence (Q13547 whole entry): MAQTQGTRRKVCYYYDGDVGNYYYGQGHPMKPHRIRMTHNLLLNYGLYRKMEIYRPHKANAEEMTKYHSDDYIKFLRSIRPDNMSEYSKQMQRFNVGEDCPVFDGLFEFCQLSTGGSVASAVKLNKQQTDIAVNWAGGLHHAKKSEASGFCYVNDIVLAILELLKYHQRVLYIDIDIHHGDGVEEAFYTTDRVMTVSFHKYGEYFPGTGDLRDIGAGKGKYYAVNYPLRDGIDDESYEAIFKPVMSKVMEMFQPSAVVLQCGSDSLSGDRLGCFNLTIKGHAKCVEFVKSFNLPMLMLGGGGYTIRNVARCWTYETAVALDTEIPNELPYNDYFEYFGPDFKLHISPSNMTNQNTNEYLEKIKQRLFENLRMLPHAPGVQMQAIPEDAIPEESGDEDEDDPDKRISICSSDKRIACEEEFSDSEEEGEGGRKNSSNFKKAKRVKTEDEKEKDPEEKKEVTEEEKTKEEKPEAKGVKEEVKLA
Protocol: as §1, §2
Human HDAC1 (GenBank Accession No. NM_004964), full length with C-terminal His-tag and C-terminal FLAG-tag, MW=56 kDa, expressed in baculovirus expression system.
as §3, §4, §5, §6, §7

| SMILES | IC50 (Recombinant human HDAC6) | IC50 (Human HDAC1) | also measured |
| --- | --- | --- | --- |
| c1cc(-c2nc(N3CCOCC3)c3oc4ncc(CN5C[C@@H]6C[C@H]5CO6)cc4c3n2)c2cc[nH]c2c1 [A] |  |  | F ([1]; male, CD1, mouse): 73.77%; clearance ([1]; male, CD1, mouse, iv, 5 mg/kg): 21.12 mL/min/kg; clearance ([1]; male, mouse, iv): 21 mL/min/kg; Oral Bioavailability (F) ([1]; male, mouse, po, 10 mg/kg): 74 |
| c1cc(-c2nc(N3CCOCC3)c3oc4ncc(CN5CCC6(CC5)COC6)cc4c3n2)c2cc[nH]c2c1 [B] |  |  | F ([1]; mouse): 74%; AUC(0-t) ([1]; mouse, iv, 3 mg/kg): 1510 ng·h/mL; AUCinf ([1]; mouse, iv, 3 mg/kg): 1512.20 ng·h/mL; Cmax ([1]; mouse, iv, 3 mg/kg): 621.42 ng/mL; Vss ([1]; mouse, iv, 3 mg/kg): 5.51 L/kg; clearance ([1]; mouse, iv, 3 mg/kg): 33.06 mL/min/kg; t1/2 ([1]; mouse, iv, 3 mg/kg): 1.23 h; AUC(0-t) ([1]; mouse, po, 10 mg/kg): 3730 ng·h/mL; AUCinf ([1]; mouse, po, 10 mg/kg): 4103.86 ng·h/mL |
| c1cc(-c2nc(N3CCOCC3)c3oc4ncc(CN5CCCCC5)cc4c3n2)c2cc[nH]c2c1 [Example I in WO2011/021038, reference compound] |  |  | Oral Bioavailability (F) ([1]; male, mouse, po, 10 mg/kg): 28 |
| Cc1nsc(N(Cc2ccc(C(=O)NO)cc2)c2ccc(F)cn2)n1 [Example R, 4-(((5-Fluoropyridin-2-yl)(3-methyl-1,2,4-thiadiazol-5-yl)amino)methyl)-N-hydroxybenzamide] | ≤ 500 nM | > 10000 nM |  |
| Cc1nsc(N(Cc2ccc(C(=O)NO)cc2)c2cc(-c3ccc(F)cc3)ccn2)n1 [Example S, 4-(((4-(4-Fluorophenyl)pyridin-2-yl)(3-methyl-1,2,4-thiadiazol-5-yl)amino)methyl)-N-hydroxybenzamide] | 1000 to 10000 nM | > 10000 nM |  |
| O=C(NO)c1ccc(CN(c2ccc(F)cn2)c2nc(C(F)(F)F)ns2)cc1 [Example T, 4-(((5-Fluoropyridin-2-yl)(3-(trifluoromethyl)-1,2,4-thiadiazol-5-yl)amino)methyl)-N-hydroxybenzamide] | 1000 to 10000 nM | > 10000 nM |  |
| O=C(NO)c1ccc(CN(c2cnccn2)c2cc(-c3ccc(F)cc3)ccn2)cc1 [Example U, 4-(((4-(4-Fluorophenyl)pyridin-2-yl)(pyrazin-2-yl)amino)methyl)-N-hydroxybenzamide] | ≤ 500 nM | 1000 to 10000 nM |  |
| O=C(NO)c1ccc(CN(c2ccccn2)c2nc(C(F)(F)F)ns2)cc1 [Example W, N-Hydroxy-4-((pyridin-2-yl(3-(trifluoromethyl)-1,2,4-thiadiazol-5-yl)amino)methyl)benzamide] | ≤ 500 nM | > 10000 nM |  |
| COc1cccnc1N(Cc1ccc(C(=O)NO)cc1)c1ccc(C)cn1 [Example X, N-Hydroxy-4-(((3-methoxypyridin-2-yl)-(5-methylpyridin-2-yl)amino)methyl)benzamide] | ≤ 500 nM | > 10000 nM |  |
| COc1ccc(N(Cc2ccc(C(=O)NO)cc2)c2ccc(C)cn2)nc1 [Example Y, N-Hydroxy-4-(((5-methoxypyridin-2-yl)(5-methylpyridin-2-yl)amino)methyl)benzamide] | ≤ 500 nM | > 10000 nM |  |
| COc1cccnc1N(Cc1ccc(C(=O)NO)cc1)c1ccc(N2CCOCC2)cn1 [Example Z, N-Hydroxy-4-(((3-methoxypyridin-2-yl)(5-morpholinopyridin-2-yl)amino)methyl)benzamide] | ≤ 500 nM | > 10000 nM |  |
| c1cc(-c2nc(N3CCOCC3)c3oc4ncc(CN5CCC56COC6)cc4c3n2)c2cc[nH]c2c1 [G] |  |  | F ([1]; male, Balb/c, mouse): 30%; clearance ([1]; male, mouse, summary table, mice, IV, read-out: Clearance): 26 mL/min/kg |

The next lines start with results.

| IC50 (Recombinant human HDAC6) | IC50 (Human HDAC1) | SMILES | also measured |
| --- | --- | --- | --- |
| ≤ 500 nM | > 10000 nM | Cc1noc(N(Cc2ccc(C(=O)NO)cc2)c2ccc(F)cn2)n1 [Example M, 4-(((5-Fluoropyridin-2-yl)(3-methyl-1,2,4-oxadiazol-5-yl)amino)methyl)-N-hydroxybenzamide] |  |
| ≤ 500 nM | > 10000 nM | O=C(NO)c1ccc(CN(c2cnccn2)c2cccnn2)cc1 [Example MM, N-Hydroxy-4-{[(pyrazin-2-yl)(pyridazin-3-yl)amino]methyl}benzamide] |  |
| ≤ 500 nM | > 10000 nM | Cn1c(N(Cc2ccc(C(=O)NO)cc2)c2ccc(F)cn2)nc2ccccc21 [Example N, 4-(((5-Fluoropyridin-2-yl)(1-methyl-1H-benzo[d]imidazol-2-yl)amino)methyl)-N-hydroxybenzamide] |  |
| ≤ 500 nM | > 10000 nM | O=C(NO)c1ccc(CN(c2cnccn2)c2cccnn2)c(F)c1 [Example NN, 3-Fluoro-N-hydroxy-4-{[(pyrazin-2-yl)(pyridazin-3-yl)amino]methyl}benzamide] |  |
| ≤ 500 nM | > 10000 nM | Cn1ccc(N(Cc2ccc(C(=O)NO)cc2)c2ccc(F)cn2)n1 [Example O, 4-(((5-Fluoropyridin-2-yl)(1-methyl-1H-pyrazol-3-yl)amino)methyl)-N-hydroxybenzamide] |  |
| ≤ 500 nM | 1000 to 10000 nM | Cc1nsc(N(Cc2ccc(C(=O)NO)cc2)c2cnccn2)n1 [Example OO, N-Hydroxy-4-{[(3-methyl-1,2,4-thiadiazol-5-yl)(pyrazin-2-yl)amino]methyl}benzamide] |  |
| ≤ 500 nM | > 10000 nM | O=C(NO)c1ccc(CN(c2ccc(F)cn2)c2nc3ccccc3o2)cc1 [Example P, 4-((Benzo[d]oxazol-2-yl(5-fluoropyridin-2-yl)amino)methyl)-N-hydroxybenzamide] |  |
| ≤ 500 nM | 1000 to 10000 nM | COc1ccnc(N(Cc2ccc(C(=O)NO)cc2)c2cnccn2)c1 [Example PP, N-Hydroxy-4-{[(4-methoxypyridin-2-yl)(pyrazin-2-yl)amino]methyl}benzamide] |  |
| ≤ 500 nM | 1000 to 10000 nM | Cn1ccc(N(Cc2ccc(C(=O)NO)cc2)c2cc(-c3ccc(F)cc3)ccn2)n1 [Example Q, 4-(((4-(4-Fluorophenyl)pyridin-2-yl)(1-methyl-1H-pyrazol-3-yl)amino)methyl)-N-hydroxybenzamide] |  |

Source: patent US20180243317A1, “COMPOSITIONS COMPRISING A PI3K INHIBITOR AND AN HDAC INHIBITOR” (KARUS THERAPEUTICS LTD, priority 2015, published 2018)
